Assay: xn = mol fraction of the nth substance listed
Details: 273.15 K, Liquid, Vibrating tube method

Cc1ccc(C)c(C)c1 [1,2,4-trimethylbenzene] + CCC(C)O
mass density [kg/m3]
Details | x2 = 0 | x2 = 0.1 | x2 = 0.1989 | x2 = 0.3011 | x2 = 0.4002 | x2 = 0.5001 | x2 = 0.5997 | x2 = 0.6999 | x2 = 0.7999 | x2 = 0.9
100 kPa | 891.7 | 885.9 | 880.3 | 874.4 | 868.5 | 862.2 | 855.4 | 847.7 | 840.4 | 831.5
1000 kPa | 892.3 | 886.3 | 880.7 | 874.7 | 868.8 | 862.5 | 855.9 | 848.6 | 840.9 | 832.2
2000 kPa | 892.9 | 886.9 | 881.3 | 875.4 | 869.5 | 863.2 | 856.6 | 849.3 | 841.5 | 832.9
5000 kPa | 894.6 | 888.8 | 883.2 | 877.3 | 871.4 | 865.2 | 858.5 | 851.3 | 843.5 | 835
10000 kPa | 897.4 | 891.8 | 886.2 | 880.4 | 874.5 | 868.3 | 861.7 | 854.5 | 846.8 | 838.2
15000 kPa | 900.2 | 894.6 | 889.1 | 883.3 | 877.4 | 871.3 | 864.7 | 857.6 | 849.9 | 841.4
20000 kPa | 902.8 | 897.4 | 891.9 | 886.1 | 880.4 | 874.2 | 867.6 | 860.5 | 852.8 | 844.4
30000 kPa | 908 | 902.7 | 897.3 | 891.6 | 885.8 | 879.7 | 873.3 | 866.2 | 858.6 | 850.1
40000 kPa | 912.9 | 907.8 | 902.4 | 896.7 | 891.1 | 885 | 878.5 | 871.5 | 863.9 | 855.6
50000 kPa | 917.5 | 912.6 | 907.2 | 901.6 | 896 | 890 | 883.6 | 876.6 | 869 | 860.7
60000 kPa | 921.9 | – | – | – | – | – | – | – | – | –
